# How the values were obtained:
# [1] = system: Sphaerotheca fuliginea; assay: Sphaerotheca test (cucumber)/protective, Example H; type: in vivo; conditions: Sphaerotheca fuliginea on cucumber, protective, application rate 750 g/ha, evaluation 7 days after inoculation
# Description: Sphaerotheca Test (Cucumber)/Protective [table] To produce a suitable preparation of active compound, 1 part by weight of active compound is mixed with the stated amounts of solvent and emulsifier, and the concentrate is diluted with water to the desired concentration. To test for protective activity, young cucumber plants are sprayed with the preparation of active compound at the stated application rate. 1 day after the treatment, the plants are inoculated with a spore suspension of Sphaerotheca fuliginea. The plants are then placed in a greenhouse at 70% relative atmospheric humidity and a temperature of 23° C. Evaluation is carried out 7 days after the inoculation. 0% means an efficacy which corresponds to that of the control, whereas an efficacy of 100% means that no infection is observed.
# [2] = system: caterpillars of the army worm (Spodoptera frugiperda); assay: Spodoptera frugiperda test (spray treatment), Example B; type: in vivo; conditions: Table B, 500 g/ha active compound
# Description: (§1) Spodoptera frugiperda Test (Spray Treatment) [table] To produce a suitable preparation of active compound, 1 part by weight of active compound is mixed with the stated amounts of solvents and emulsifier, and the concentrate is diluted with emulsifier-containing water to the desired concentration. Discs of maize leaves (Zea mays) are sprayed with a preparation of active compound of the desired concentration and, after they have dried, populated with caterpillars of the army worm (Spodoptera frugiperda). After the desired period of time, the activity in % is determined 100% means that all caterpillars have been killed; 0% means that none of the caterpillars have been killed.
# [3] = system: larvae of the mustard beetle (Phaedon cochleariae); assay: Phaedon test (spray treatment), Example E; type: in vivo; conditions: Table E
# Description: as §1, with “Phaedon Test” for “Spodoptera frugiperda Test”, “of Chinese cabbage (Brassica pekinensis)” for “of maize leaves (Zea mays)”, “with larvae” for “with caterpillars”, “the mustard beetle (Phaedon cochleariae).” for “the army worm (Spodoptera frugiperda).”, “all beetle larvae” for “all caterpillars”, “the beetle larvae” for “the caterpillars”
# [4] = system: greenhouse red spider mite (Tetranychus urticae); assay: Tetranychus test (OP-resistant/spray treatment), Example G; type: in vivo; conditions: Tetranychus urticae (OP-resistant), bean leaf discs, spray treatment, 500 g/ha
# Description: Tetranychus Test (OP-Resistant/Spray Treatment)
# (§2) To produce a suitable preparation of active compound, 1 part by weight of active compound is mixed with the stated amounts of solvents and emulsifier, and the concentrate is diluted with emulsifier-containing water to the desired concentration.
# Discs of bean leaves (Phaseolus vulgaris) which are infested by all stages of the greenhouse red spider mite (Tetranychus urticae) are sprayed with a preparation of active compound of the desired concentration.
# After the desired period of time, the activity in % is determined 100% means that all spider mites have been killed; 0% means that none of the spider mites have been killed.
# [5] = system: Meloidogyne incognita; assay: Meloidogyne test, Example C; type: in vivo; conditions: Table C, 20 ppm active compound, nematicidal effect by formation of galls
# Description: Meloidogyne Test [table] To produce a suitable preparation of active compound, 1 part by weight of active compound is mixed with the stated amounts of solvent, and the concentrate is diluted with water to the desired concentration. Containers are filled with sand, solution of active compound, Meloidogyne incognita egg/larvae suspension and lettuce seeds. The lettuce seeds germinate and the plants develop. On the roots, galls are formed. After the desired period of time, the nematicidal effect is determined in % by the formation of galls. 100% means that no galls have been found; 0% means that the number of galls on the treated plants corresponds to that of the untreated control.
# [6] = system: larvae of the mustard beetle (Phaedon cochleariae); assay: Phaedon test (spray treatment), Example A; type: in vivo; conditions: Table A, 500 g/ha active compound
# Description: as §1, with “Phaedon Test” for “Spodoptera frugiperda Test”, “of Chinese cabbage (Brassica pekinensis)” for “of maize leaves (Zea mays)”, “with larvae” for “with caterpillars”, “the mustard beetle (Phaedon cochleariae).” for “the army worm (Spodoptera frugiperda).”, “all beetle larvae” for “all caterpillars”, “the beetle larvae” for “the caterpillars”
# [7] = system: green peach aphid (Myzus persicae); assay: Myzus test (spray treatment), Example D; type: in vivo; conditions: Table D, 100 g/ha active compound
# Description: Myzus Test (Spray Treatment)
# as §2
# Discs of Chinese cabbage (Brassica pekinensi), which are infested by all stages of the green peach aphid (Myzus persicae) are sprayed with a preparation of active compound of the desired concentration.
# After the desired period of time, the activity in % is determined 100% means that all aphids have been killed; 0% means that none of the aphids have been killed.
# [8] = system: monocotyledonous and dicotyledonous weed and crop plants; assay: Herbicidal post-emergence action, Example J; type: in vivo; conditions: Greenhouse, 320 g a.i./ha, about 3 weeks
# Description: Herbicidal Post-Emergence Action Seeds of monocotyledonous and dicotyledonous weed and crop plants are placed into sandy loam in woodfibre pots, covered with soil and cultivated in a greenhouse under good growth conditions. 2-3 weeks after sowing, the test plants are treated at the one-leaf stage. The test compounds formulated as wettable powders (WP) are, in various dosages with a water application rate of 600 l/ha (converted), with 0.2% of wetting agent added, sprayed onto the green parts of the plants. After the test plants have been kept in the greenhouse under optimum growth conditions for about 3 weeks, the effect of the preparations is rated visually in comparison to untreated controls (herbicidal effect in percent (%): 100% effect=plants have died, 0% effect=like control plants).
smiles,measurement,setting,value
Cc1ccc(-c2cccc(Cl)c2)cc1-c1c(OC(=O)C(C)(C)C)n2n(c1=O)CCCC2 [Ex. I-1-b-3],Efficacy in %,[1],90%
Cc1ccc(-c2ccc(Cl)cc2)cc1-c1c(OC(=O)C(C)(C)C)n2n(c1=O)CCCC2 [Ex. I-1-b-4],Kill rate in % after 7d,[2],100%
same,Kill rate in % after 7d,[3]; 500 g/ha active compound,100%
same,Kill rate in % after 5d,[4],100%
CCOC(=O)Oc1c(-c2cc(-c3ccc(Cl)cc3)ccc2C)c(=O)n2n1CCCC2 [Ex. I-1-c-4],Kill rate in % after 7d,[2],100%
Cc1ccc(-c2ccc(F)cc2)cc1-c1c(O)n2n(c1=O)CCCC2 [Example I-1-a-1],Effect in % after 14d,[5],80%
same,melting point,,172 °C
Cc1ccc(-c2ccc(Cl)cc2)cc1-c1c(O)n2n(c1=O)CCCC2 [Example I-1-a-4],Kill rate in % after 7d,[6],100%
Cc1ccc(-c2ccc(F)cc2)cc1-c1c(OC(=O)C(C)(C)C)n2n(c1=O)CCCC2 [Example I-1-b-1],Effect in % after 14d,[5],90%
same,Kill rate in % after 7d,[3]; 500 g/ha active compound,100%
same,Efficacy in %,[1],94%
CCOC(=O)Oc1c(-c2cc(-c3ccc(F)cc3)ccc2C)c(=O)n2n1CCCC2 [Example I-1-c-1],Kill rate in % after 5d,[7],100%
same,Kill rate in % after 7d,[3]; 100 g/ha active compound,100%
same,Efficacy in %,[1],80%
same,"herbicidal effect in percent, Avena fatua",[8]; Avena fatua,90%
same,"herbicidal effect in percent, Lolium",[8]; Lolium,90%
same,"herbicidal effect in percent, Setaria",[8]; Setaria,80%

# — US8987500B2, “4-biphenyl-substituted pyrazolidin-3,5-dione derivatives” (Bayer CropScience AG, priority 2003, dated 2015)
